Common to all, as to type: in vivo
Assay [1] has as its system Cabbage Looper (Trichoplusia ni, TRIPNI). Nature of the assay: Bioassay on Cabbage Looper (CL), 128-well diet tray assay. To be noted: Trichoplusia ni. The procedure, abridged: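 Test molecule is dissolved in 90:10 acetone-water and applied at 50 μg/cm^2 onto artificial diet, then dried. One to five second-instar larvae go into each of eight wells. Trays, sealed but vented, stay at 25° C., 14:10 light-dark, five to seven days, after which mortality is averaged.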

The test system of assay [2] is Yellow Fever Mosquito (Aedes aegypti, AEDSAE). Nature of the assay: Bioassay on Yellow Fever Mosquito (YFM), 96-well plate larval assay. To be noted: for YFM (Biological Results, rating): Species YFM (Yellow Fever Mosquito); for YFM rating: Yellow Fever Mosquito, 96-well plate larval assay. An outline of the steps:
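Each well was scored for mortality after 3 days at room temperature under a non-evaporative lid. Test molecules came from DMSO masters (4000 ppm stock) diluted with water/acetone 90:10 and dispensed into six replicate plates, which were then infested with roughly 1-day-old larvae in liver-powder water.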

For assay [3], the system named is Beet Armyworm (Spodoptera exigua, LAPHEG). Nature of the assay: Bioassay on Beet Armyworm (BAW), 128-well diet tray assay. An outline of the steps: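 Second-instar larvae, one to five per well, placed on artificial diet surface-treated with 50 μg/cm^2 compound applied in 90:10 acetone-water and dried. Held 5–7 days at 25° C., 14:10 light-dark. Percent mortality recorded per well and averaged over eight wells.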

The mark [4] stands for this setting: Species CL (Cabbage Looper), read-out: CL (Biological Results, rating).
[5] abbreviates: Species BAW (Beet Armyworm), read-out: BAW (Biological Results, rating).
[6] abbreviates: Cabbage Looper, 128-well diet tray assay, read-out: CL rating.
[7] abbreviates: Beet Armyworm, 128-well diet tray assay, read-out: BAW rating.

Read-outs that look alike come from different tables or passages of the source.

`O=C(Nc1ccc(F)cc1)c1cc(NC(=O)[C@H]2[C@H](c3cc(Cl)cc(Cl)c3)C2(Cl)Cl)ccc1-n1cncn1` (relative stereo) [F12, trans-5-(2,2-Dichloro-3-(3,5-dichlorophenyl)cyclopropane-1-carboxamido)-N-(4-fluorophenyl)-2-(1H-1,2,4-triazol-1-yl)benzamide]: the pest or weed control at 50 µg/cm2 in assay [1] (setting [4]) and in assay [3] (setting [5]) was 50 to 100% in each case. Moreover, in assay [2], the “YFM (Biological Results, rating)” value is on record as “A (80-100)”.

Consider `O=C(Nc1nc2c(Cl)cccc2s1)c1cc(NC(=O)C2C(c3cc(Cl)cc(Cl)c3)C2(Cl)Cl)ccc1Cl` (stereo not drawn) [F443, 2-Chloro-N-(4-chlorobenzo[d]thiazol-2-yl)-5-(trans)-2,2-dichloro-3-(3,5-dichlorophenyl)cyclopropane-1-carboxamido)benzamide], for which the pest or weed control at 50 µg/cm2 in assay [1] (setting [6]) and in assay [3] (setting [7]) was 50 to 100% each time. Besides, in assay [2], the YFM rating entry is listed as “B (More than 0-Less than 80)”.

As for `O=C(Nc1ccc(F)c(Cl)c1)c1cc(NC(=O)C2C(c3cc(Cl)cc(Cl)c3)C2(Cl)Cl)ccc1Cl` (stereo not drawn) [PF122, 2-Chloro-N-(3-chloro-4-fluorophenyl)-5-(trans)-2,2-dichloro-3-(3,5-dichlorophenyl)cyclopropane-1-carboxamido)benzamide], the pest or weed control at 50 µg/cm2 in assay [1] (setting [6]) and in assay [3] (setting [7]) was 50 to 100% in each case. Also, the YFM rating entry in assay [2] is recorded as “B (More than 0-Less than 80)”.

As for `CN(C(=O)c1cc(NC(=O)[C@H]2[C@H](c3cccc(C(F)F)c3)C2(Cl)Cl)ccc1Cl)c1ccc(F)cc1` (relative stereo) [F598, 2-Chloro-5-(trans-2,2-dichloro-3-(3-(difluoromethyl)phenyl)cyclopropane-1-carboxamido)-N-(4-fluorophenyl)-N-methylbenzamide], the pest or weed control at 50 µg/cm2 in assay [1] (setting [6]) and in assay [3] (setting [7]) was 50 to 100% throughout. Further, in assay [2], the YFM rating entry is “A (80-100)”.

In the case of `Cc1c(NC(=O)c2cc(NC(=O)[C@H]3[C@H](c4cc(Cl)cc(Cl)c4)C3(Cl)Cl)ccc2Cl)ccc2[nH]ccc12` (relative stereo) [F485, 2-Chloro-5-(trans)-(2,2-dichloro-3-(3,5-dichlorophenyl)cyclopropane-1-carboxamido)-N-(4-methyl-1H-indol-5-yl)benzamide], the pest or weed control at 50 µg/cm2 in assay [1] (setting [6]) and in assay [3] (setting [7]) was 50 to 100% throughout. In addition, the YFM rating result in assay [2] is given as “A (80-100)”.

Take `N#Cc1cc(F)ccc1NC(=O)c1cc(NC(=O)[C@H]2[C@H](c3ccc(Br)c(Cl)c3)C2(Cl)Cl)ccc1Cl` (relative stereo) [F320, 5-(trans-3-(4-Bromo-3-chlorophenyl)-2,2-dichlorocyclopropane-1-carboxamido)-2-chloro-N-(2-cyano-4-fluorophenyl)benzamide]: the pest or weed control at 50 µg/cm2 in assay [1] (setting [4]) and in assay [3] (setting [5]) was 50 to 100% in each case. The “YFM (Biological Results, rating)” value in assay [2] was “A (80-100)”.

As for `O=C(Nc1ccc(F)cc1F)c1cc(NC(=O)[C@H]2[C@H](c3ccc(F)c(Cl)c3)C2(Cl)Cl)ccc1Cl` (relative stereo) [PF6, trans-2-Chloro-5-(2,2-dichloro-3-(3-chloro-4-fluorophenyl)cyclopropane-1-carboxamido)-N-(2,4-difluorophenyl)benzamide], the pest or weed control at 50 µg/cm2 in assay [1] (setting [6]) and in assay [3] (setting [7]) was 50 to 100% each time. Moreover, in assay [2], the YFM rating result is on record as “A (80-100)”.

In the case of `O=C(Nc1cc(F)cc([N+](=O)[O-])c1)c1cc(NC(=O)[C@H]2[C@H](c3ccc(F)c(Cl)c3)C2(Cl)Cl)ccc1Cl` [F418, 2-Chloro-5-((1R,3R)-2,2-dichloro-3-(3-chloro-4-fluorophenyl)cyclopropane-1-carboxamido)-N-(3-fluoro-5-nitrophenyl)benzamide], the pest or weed control at 50 µg/cm2 in assay [1] (setting [6]) and in assay [3] (setting [7]) was 50 to 100% in each case. In addition, in assay [2], the YFM rating entry is recorded as “A (80-100)”.

Source of the values: patent publication US10219516B2, “Molecules having pesticidal utility, and intermediates, compositions, and processes, related thereto” (priority 2015, dated 2019).
